In patent publication US5639715A, “Aqueous based drilling fluid additive and composition” (M-I Drilling Fluids LLC, priority 1994, dated 1997):

Legend:
Assay type in all cases: physicochemical
[1] = coefficient of friction on sandstone, Lubricity Evaluation Monitor (LEM) (Table 5); conditions: 1/2% in 22.5 ppb bentonite slurry
Protocol: The following experiment shower the lubricity properties of surfactants of this invention in 22.5 ppb bentonite slurry in water. The coefficient of friction on sandstone was determined using a Lubricity Evaluation Monitor (LEM) designed by M-I Drilling Fluids Company.

[2] = lubricity coefficient, Baroid lubricity meter (Table 4); conditions: 1% solution in deionized water
Protocol: A 1% solution of surfactant as in deionized water was tested on a Baroid lubricity meter (Model No. 21200-EP/Lubricity Tester). The lubricity coefficient of the samples were calculated and recorded in Table 4. Deionized water was used as base.

[3] = surface tension measurement at various concentrations and temperatures
Protocol: The surface tension measurement were carried out on Monawet SNO-35 and coco diethanolamide (CDA) at various concentrations and various temperatures. The following results establish that the higher surface tension values of the products of this invention when compared to the prior art, coco diethanolamide (CDA), would have lower foaming in drilling fluid applications.

CCCCCCCCCCCCCCCCCCN(C(=O)CC(C(=O)O)S(=O)(=O)O)C(CC(=O)O)C(=O)O (stereo not shown) [Monawet SNO-35, tetrasodium N-(1,2-dicarboxyethyl) N-alkyl (C18) sulfosuccinamate]
% Reduction (coefficient of friction) [1]: 73.9%
Coefficient of Friction [1]: 0.168
Lubricity coefficient [2]: .095
% Reduction (lubricity coefficient) ([2]; versus DI water): 72%
Surface Tension ([3]; 0.1% in DI water, 24 °C): 51 dynes per centimeter
Surface Tension ([3]; 0.1% in DI water, 38 °C): 47 dynes per centimeter
Surface Tension ([3]; 0.1% in DI water, 43 °C): 45 dynes per centimeter
Surface Tension ([3]; 0.1% in DI water, 50 °C): 44 dynes per centimeter
Surface Tension ([3]; 1.0% in DI water, 24 °C): 49 dynes per centimeter
Surface Tension ([3]; 1.0% in DI water, 36 °C): 42 dynes per centimeter
Surface Tension ([3]; 1.0% in DI water, 45 °C): 38 dynes per centimeter
Surface Tension ([3]; 1.0% in DI water, 50 °C): 37 dynes per centimeter
Surface Tension ([3]; 2.0% in DI water, 24 °C): 46 dynes per centimeter
Surface Tension ([3]; 2.0% in DI water, 38 °C): 41 dynes per centimeter
Surface Tension ([3]; 2.0% in DI water, 44 °C): 39 dynes per centimeter
Surface Tension ([3]; 2.0% in DI water, 49 °C): 37 dynes per centimeter
